System: creeping bentgrass putting greens
Test: Experiment No. 5: putting green field trial of Fleet100 and choline alone or in combination
Format: in vivo
Settings: Fleet100 5 fl oz, choline 0.25 oz/1000 ft^2 monthly
Experimental: There were 4 treatments with 4 replications. Plot size was 5×6 ft. Regular mowing and irrigation were performed. A randomized block design was used. Fleet® 100 was supplied by […]) and choline from Sigma-Aldrich, Inc. (St. Louis, MO) were used in this study. The treatments were as follows: • 1. […] N/1,000 ft^2 biweekly • 3. […] N/1,000 ft^2 biweekly • 4. […] The trial lasted for 12 weeks and a total of 3 treatment applications. […] Leaf chlorophyll content. Leaf samples were collected biweekly and chlorophyll content was determined using the spectrophotometer method described by Zhang et al. (2005). • e. Volumetric water content. […] At day 9 of the dry down cycles, leaf samples were collected and leaf proline content was analyzed. Irrigation was resumed after day 9 of each dry down cycle. […] Leaf proline content. Leaf samples were collected at the end of each dry down cycle and proline content was measured by using the method described by Wu et al. (2017). • g. Root characteristics, biomass, and viability. […] The root length, root diameter, root surface area, and root volume were analyzed using WinRHIZO technology. Briefly, after fine cleaning of each root sample, the sample from each plot was divided into multiple subsamples. Each subsample was scanned using WinRHIZO and all root morphological parameters were generated and analyzed. In addition, root viability was analyzed using TTC method (Zhang et al., 2017). Root viability is a good indicator of root function.

`C[N+](C)(C)CCO.[Cl-]` [Choline, choline chloride] was tested. Which “Chlorophyll Content” value (day 0) did it give?
The value was 2.45a mg/g fresh weight.

What about the “Leaf color (1-9, 9 = dark green)” value (day 0) of the same compound?
Its value is 7.5a.

What about the “Photochemical Efficiency (Fv/Fm)” value (day 0) of the same compound?
Its value is 0.720a.

And the “Turf quality (1-9, 9 = best)” value (day 0)?
The value was 7.5a.

What about the “Chlorophyll Content” value (day 14) of the same compound?
Its value is 2.90a mg/g fresh weight.

And the “Leaf color (1-9, 9 = dark green)” value (day 14)?
Its value is 7.6ab.

What about the “Photochemical Efficiency (Fv/Fm)” value (day 14) of the same compound?
Its value is 0.696a.

And the “Turf quality (1-9, 9 = best)” value (day 14)?
Its value is 7.4a.

What about the “Leaf color (1-9, 9 = dark green)” value (day 22) of the same compound?
The value was 7.4a.

And the “Photochemical Efficiency (Fv/Fm)” value (day 22)?
Its value is 0.664a.

What about the “Turf quality (1-9, 9 = best)” value (day 22) of the same compound?
The value was 6.8ab.

What about the Proline (day 22 (end of 1st dry-down cycle)) of the same compound?
Its Proline is 467.0a ug/g FW.

What about the “Chlorophyll Content” value (day 28) of the same compound?
Its value is 3.85a mg/g fresh weight.

And the “Leaf color (1-9, 9 = dark green)” value (day 28)?
The value was 7.8a.

What about the “Photochemical Efficiency (Fv/Fm)” value (day 28) of the same compound?
Its value is 0.761a.

What about the “Turf quality (1-9, 9 = best)” value (day 28) of the same compound?
Its value is 7.6b.

And the “Photochemical Efficiency (Fv/Fm)” value (day 40)?
The value was 0.714a.

And the “Chlorophyll Content” value (day 42)?
Its value is 3.03a mg/g fresh weight.

What about the “Leaf color (1-9, 9 = dark green)” value (day 42) of the same compound?
The value was 6.9ab.

And the “Photochemical Efficiency (Fv/Fm)” value (day 42)?
Its value is 0.634a.

And the “Turf quality (1-9, 9 = best)” value (day 42)?
Its value is 6.5b.

And the Proline (day 42 (end of 2nd dry-down cycle))?
Its Proline is 538.0a ug/g FW.

And the “Chlorophyll Content” value (day 56)?
Its value is 3.46a mg/g fresh weight.

What about the “Leaf color (1-9, 9 = dark green)” value (day 56) of the same compound?
The value was 7.7ab.

And the “Photochemical Efficiency (Fv/Fm)” value (day 56)?
The value was 0.729a.

And the “Turf quality (1-9, 9 = best)” value (day 56)?
The value was 7.4b.

And the “Chlorophyll Content” value (day 70)?
Its value is 2.79b mg/g fresh weight.

What about the “Leaf color (1-9, 9 = dark green)” value (day 70) of the same compound?
The value was 7.4ab.

And the “Photochemical Efficiency (Fv/Fm)” value (day 70)?
Its value is 0.733ab.

What about the “Turf quality (1-9, 9 = best)” value (day 70) of the same compound?
The value was 7.2ab.

And the “Chlorophyll Content” value (day 84)?
The value was 2.57a mg/g fresh weight.

And the “Leaf color (1-9, 9 = dark green)” value (day 84)?
The value was 7.4b.

What about the “Photochemical Efficiency (Fv/Fm)” value (day 84) of the same compound?
The value was 0.733ab.

What about the “Turf quality (1-9, 9 = best)” value (day 84) of the same compound?
Its value is 7.3b.

And the “Root Biomass” value (end of trial)?
The value was 2.14ab mg/cm^3.

And the “Root Diameter” value (end of trial)?
The value was 0.187b mm.

What about the “Root Length” value (end of trial) of the same compound?
Its value is 118.2a cm/cm^3.

And the “Root SA” value (end of trial)?
Its value is 7.02ab cm^2/cm^3.

What about the “Root Volume” value (end of trial) of the same compound?
The value was 33.4ab cm^3/dm^3.

What about the “Root Viability” value (end of trial, TTC method) of the same compound?
The value was 0.49a A490/g FW.
